Data published in ChEMBL document CHEMBL3132769, “Fragment growing to retain or alter the selectivity of anchored kinase hinge-binding fragments” (Medchemcomm, 2014).

Key:
[1] = molecular target: Insulin receptor (Homo sapiens) (UniProt P06213); experiment: Inhibition of human INSR catalytic domain expressed in baculovirus assessed as substrate phosphorylation using fluorescence-labelled peptides as substrate at 70 uM after 90 mins by microfluidic peptide phosphorylation assay
[2] = molecular target: Fibroblast growth factor receptor 3 (Homo sapiens) (UniProt P22607); experiment: Inhibition of human FGFR3 catalytic domain expressed in baculovirus assessed as substrate phosphorylation using fluorescence-labelled peptides as substrate at 420 uM after 90 mins by microfluidic peptide phosphorylation assay
[3] = molecular target: Tyrosine-protein kinase BTK (Homo sapiens) (UniProt Q06187); experiment: Inhibition of human full length BTK expressed in baculovirus assessed as substrate phosphorylation using fluorescence-labelled peptides as substrate at 95 uM after 90 mins by microfluidic peptide phosphorylation assay
Chain of Tyrosine-protein kinase BTK (Homo sapiens) (Q06187 whole entry, the tested form may be a part): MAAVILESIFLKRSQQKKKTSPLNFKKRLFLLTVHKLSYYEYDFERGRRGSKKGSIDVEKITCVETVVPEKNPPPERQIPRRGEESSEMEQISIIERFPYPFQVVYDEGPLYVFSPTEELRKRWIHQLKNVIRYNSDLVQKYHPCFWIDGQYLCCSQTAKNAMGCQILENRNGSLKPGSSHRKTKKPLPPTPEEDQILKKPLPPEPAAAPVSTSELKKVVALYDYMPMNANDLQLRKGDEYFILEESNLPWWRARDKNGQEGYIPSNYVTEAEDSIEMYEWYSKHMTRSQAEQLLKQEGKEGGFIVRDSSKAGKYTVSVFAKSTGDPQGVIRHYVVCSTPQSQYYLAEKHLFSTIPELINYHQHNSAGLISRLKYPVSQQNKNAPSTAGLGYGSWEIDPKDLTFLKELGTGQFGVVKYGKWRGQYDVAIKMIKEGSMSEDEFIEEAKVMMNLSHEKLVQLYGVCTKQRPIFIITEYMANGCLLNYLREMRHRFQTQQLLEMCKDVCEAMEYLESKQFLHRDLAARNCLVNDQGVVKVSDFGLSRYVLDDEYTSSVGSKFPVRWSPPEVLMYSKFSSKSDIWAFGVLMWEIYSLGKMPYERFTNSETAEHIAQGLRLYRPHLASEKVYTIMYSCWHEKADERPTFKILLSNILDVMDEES

[4] = molecular target: Tyrosine-protein kinase Lck (Homo sapiens) (UniProt P06239); experiment: Inhibition of human full length LCK expressed in baculovirus assessed as substrate phosphorylation using fluorescence-labelled peptides as substrate at 95 uM after 90 mins by microfluidic peptide phosphorylation assay
Chain of Tyrosine-protein kinase Lck (Homo sapiens) (P06239 2-509 limits assumed): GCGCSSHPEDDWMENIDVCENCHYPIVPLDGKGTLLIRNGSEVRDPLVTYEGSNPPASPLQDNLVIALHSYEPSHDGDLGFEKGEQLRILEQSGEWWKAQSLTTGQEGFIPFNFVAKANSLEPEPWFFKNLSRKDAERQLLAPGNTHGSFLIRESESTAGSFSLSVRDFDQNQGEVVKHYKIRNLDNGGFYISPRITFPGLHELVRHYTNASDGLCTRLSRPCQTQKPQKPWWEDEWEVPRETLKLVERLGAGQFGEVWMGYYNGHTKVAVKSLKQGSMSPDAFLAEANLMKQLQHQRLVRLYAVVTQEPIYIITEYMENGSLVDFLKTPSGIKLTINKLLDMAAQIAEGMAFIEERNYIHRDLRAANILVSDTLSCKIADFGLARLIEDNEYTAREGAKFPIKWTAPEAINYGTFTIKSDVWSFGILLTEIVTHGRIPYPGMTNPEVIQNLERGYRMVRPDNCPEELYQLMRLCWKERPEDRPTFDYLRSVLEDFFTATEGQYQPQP

[5] = molecular target: Protein kinase C alpha type (Homo sapiens) (UniProt P17252); experiment: Inhibition of human truncated PKC alpha expressed in baculovirus assessed as substrate phosphorylation using fluorescence-labelled peptides as substrate at 95 uM after 90 mins by microfluidic peptide phosphorylation assay
[6] = molecular target: MAP kinase-activated protein kinase 3 (Homo sapiens) (UniProt Q16644); experiment: Inhibition of human full length MAPKAPK3 expressed in Escherichia coli cell assessed as substrate phosphorylation using fluorescence-labelled peptides as substrate at 9 uM after 90 mins by microfluidic peptide phosphorylation assay
Chain of MAP kinase-activated protein kinase 3 (Homo sapiens) (Q16644 whole entry, looked up): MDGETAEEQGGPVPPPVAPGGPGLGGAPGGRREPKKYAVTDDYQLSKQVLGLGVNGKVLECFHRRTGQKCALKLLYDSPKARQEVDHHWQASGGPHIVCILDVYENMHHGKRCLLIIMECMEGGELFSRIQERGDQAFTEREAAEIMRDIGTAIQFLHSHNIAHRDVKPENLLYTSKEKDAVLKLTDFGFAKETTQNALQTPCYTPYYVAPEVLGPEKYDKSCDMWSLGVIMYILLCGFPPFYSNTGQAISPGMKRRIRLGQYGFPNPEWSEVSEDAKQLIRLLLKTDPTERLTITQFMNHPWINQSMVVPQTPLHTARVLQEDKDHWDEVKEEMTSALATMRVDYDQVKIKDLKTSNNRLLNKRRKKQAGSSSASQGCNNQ

[7] = molecular target: T1, Mitogen-activated protein kinase 12 (Homo sapiens) (UniProt P53778); experiment: Inhibition of human full length p38 gamma expressed in Escherichia coli cell assessed as substrate phosphorylation using fluorescence-labelled peptides as substrate at 9 uM after 90 mins by microfluidic peptide phosphorylation assay
T1 sequence (whole entry): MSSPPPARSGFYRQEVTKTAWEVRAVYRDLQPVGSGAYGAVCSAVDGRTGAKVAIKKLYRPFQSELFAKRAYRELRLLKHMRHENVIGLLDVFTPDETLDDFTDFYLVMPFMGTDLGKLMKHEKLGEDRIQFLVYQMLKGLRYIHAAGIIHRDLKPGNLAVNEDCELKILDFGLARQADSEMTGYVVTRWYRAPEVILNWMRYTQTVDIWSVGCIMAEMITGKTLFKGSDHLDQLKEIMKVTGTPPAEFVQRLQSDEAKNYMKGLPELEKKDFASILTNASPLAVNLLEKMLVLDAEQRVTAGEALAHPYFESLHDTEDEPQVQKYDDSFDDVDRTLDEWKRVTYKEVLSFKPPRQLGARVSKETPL

[8] = molecular target: T2, Calcium/calmodulin-dependent protein kinase type IV (Homo sapiens) (UniProt Q16566); experiment: Inhibition of human full length CAMK4 expressed in baculovirus assessed as substrate phosphorylation using fluorescence-labelled peptides as substrate at 9 uM after 90 mins by microfluidic peptide phosphorylation assay
T2 sequence (whole entry): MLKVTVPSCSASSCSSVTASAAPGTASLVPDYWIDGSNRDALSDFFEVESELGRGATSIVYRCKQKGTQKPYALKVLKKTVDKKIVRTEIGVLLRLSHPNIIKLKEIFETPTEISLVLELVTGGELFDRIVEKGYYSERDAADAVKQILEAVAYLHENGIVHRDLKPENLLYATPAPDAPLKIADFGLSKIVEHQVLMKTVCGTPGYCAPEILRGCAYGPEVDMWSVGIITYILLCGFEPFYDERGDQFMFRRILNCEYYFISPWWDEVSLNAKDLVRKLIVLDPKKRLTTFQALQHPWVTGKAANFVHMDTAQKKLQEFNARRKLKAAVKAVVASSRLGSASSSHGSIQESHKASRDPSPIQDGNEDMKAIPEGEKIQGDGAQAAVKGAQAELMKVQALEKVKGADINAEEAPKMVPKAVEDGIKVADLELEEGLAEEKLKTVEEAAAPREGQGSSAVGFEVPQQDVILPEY

[9] = molecular target: Tyrosine-protein kinase BTK (Homo sapiens) (UniProt Q06187); experiment: Inhibition of human full length BTK expressed in baculovirus assessed as substrate phosphorylation using fluorescence-labelled peptides as substrate at 9 uM after 90 mins by microfluidic peptide phosphorylation assay
[10] = molecular target: Tyrosine-protein kinase HCK (Homo sapiens) (UniProt P08631); experiment: Inhibition of human HCK catalytic domain expressed in baculovirus assessed as substrate phosphorylation using fluorescence-labelled peptides as substrate at 1000 uM after 90 mins by microfluidic peptide phosphorylation assay
Chain of Tyrosine-protein kinase HCK (Homo sapiens) (P08631 2-526 limits assumed): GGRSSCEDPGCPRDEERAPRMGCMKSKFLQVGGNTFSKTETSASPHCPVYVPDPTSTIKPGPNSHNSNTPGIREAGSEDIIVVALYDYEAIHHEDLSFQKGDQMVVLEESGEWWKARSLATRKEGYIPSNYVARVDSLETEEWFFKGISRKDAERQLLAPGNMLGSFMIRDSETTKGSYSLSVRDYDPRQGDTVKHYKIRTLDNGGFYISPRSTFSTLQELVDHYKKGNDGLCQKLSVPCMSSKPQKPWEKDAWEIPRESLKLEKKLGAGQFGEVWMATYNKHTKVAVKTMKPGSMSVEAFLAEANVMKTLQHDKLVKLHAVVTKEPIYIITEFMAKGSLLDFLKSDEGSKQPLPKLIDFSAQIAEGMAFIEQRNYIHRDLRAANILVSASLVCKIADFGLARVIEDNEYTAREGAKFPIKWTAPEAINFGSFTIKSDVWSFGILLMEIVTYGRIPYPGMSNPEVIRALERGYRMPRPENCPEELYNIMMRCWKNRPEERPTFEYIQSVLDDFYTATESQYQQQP

[11] = molecular target: Mitogen-activated protein kinase 1 (Homo sapiens) (UniProt P28482); experiment: Inhibition of human full length ERK2 expressed in Escherichia coli cell assessed as substrate phosphorylation using fluorescence-labelled peptides as substrate at 1000 uM after 90 mins by microfluidic peptide phosphorylation assay
Chain of Mitogen-activated protein kinase 1 (Homo sapiens) (P28482 whole entry): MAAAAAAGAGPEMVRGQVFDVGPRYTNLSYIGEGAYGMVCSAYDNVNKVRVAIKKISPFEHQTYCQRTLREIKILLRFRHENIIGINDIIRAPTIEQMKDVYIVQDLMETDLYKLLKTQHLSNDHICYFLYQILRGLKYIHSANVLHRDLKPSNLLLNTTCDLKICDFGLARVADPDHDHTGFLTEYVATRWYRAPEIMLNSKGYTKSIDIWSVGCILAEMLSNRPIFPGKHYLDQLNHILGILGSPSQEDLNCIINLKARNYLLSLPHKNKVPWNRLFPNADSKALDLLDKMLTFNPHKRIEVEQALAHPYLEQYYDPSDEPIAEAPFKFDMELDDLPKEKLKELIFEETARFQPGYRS

[12] = molecular target: MAP kinase-activated protein kinase 2 (Homo sapiens) (UniProt P49137); experiment: Inhibition of human full length MAPKAPK2 expressed in baculovirus assessed as substrate phosphorylation using fluorescence-labelled peptides as substrate at 2 uM after 90 mins by microfluidic peptide phosphorylation assay
[13] = molecular target: T3, Serine/threonine-protein kinase 3 (Homo sapiens) (UniProt Q13188); experiment: Inhibition of human full length MST2 expressed in baculovirus assessed as substrate phosphorylation using fluorescence-labelled peptides as substrate at […] after 90 mins by microfluidic peptide phosphorylation assay
T3 sequence (whole entry): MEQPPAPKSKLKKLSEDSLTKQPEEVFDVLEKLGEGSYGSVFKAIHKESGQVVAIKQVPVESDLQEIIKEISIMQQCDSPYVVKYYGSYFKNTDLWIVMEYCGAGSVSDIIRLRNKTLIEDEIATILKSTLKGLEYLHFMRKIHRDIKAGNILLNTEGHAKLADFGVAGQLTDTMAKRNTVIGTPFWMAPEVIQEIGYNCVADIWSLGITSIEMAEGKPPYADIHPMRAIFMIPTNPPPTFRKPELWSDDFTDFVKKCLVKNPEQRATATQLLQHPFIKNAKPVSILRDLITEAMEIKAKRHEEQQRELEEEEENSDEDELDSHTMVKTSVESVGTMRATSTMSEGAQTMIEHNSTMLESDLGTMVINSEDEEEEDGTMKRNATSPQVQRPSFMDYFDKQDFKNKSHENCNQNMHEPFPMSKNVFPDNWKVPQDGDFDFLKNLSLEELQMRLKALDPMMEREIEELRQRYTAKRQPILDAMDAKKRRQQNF

[14] = molecular target: Serine/threonine-protein kinase MARK2 (Homo sapiens) (UniProt Q7KZI7); experiment: Inhibition of human full length MARK2 expressed in baculovirus assessed as substrate phosphorylation using fluorescence-labelled peptides as substrate at 8 uM after 90 mins by microfluidic peptide phosphorylation assay
[15] = molecular target: Tyrosine-protein kinase ABL2 (Homo sapiens) (UniProt P42684); experiment: Inhibition of human truncated Arg expressed in baculovirus assessed as substrate phosphorylation using fluorescence-labelled peptides as substrate at 0.1 uM after 90 mins by microfluidic peptide phosphorylation assay
Chain of Tyrosine-protein kinase ABL2 (Homo sapiens) (P42684 whole entry, the tested form may be a part): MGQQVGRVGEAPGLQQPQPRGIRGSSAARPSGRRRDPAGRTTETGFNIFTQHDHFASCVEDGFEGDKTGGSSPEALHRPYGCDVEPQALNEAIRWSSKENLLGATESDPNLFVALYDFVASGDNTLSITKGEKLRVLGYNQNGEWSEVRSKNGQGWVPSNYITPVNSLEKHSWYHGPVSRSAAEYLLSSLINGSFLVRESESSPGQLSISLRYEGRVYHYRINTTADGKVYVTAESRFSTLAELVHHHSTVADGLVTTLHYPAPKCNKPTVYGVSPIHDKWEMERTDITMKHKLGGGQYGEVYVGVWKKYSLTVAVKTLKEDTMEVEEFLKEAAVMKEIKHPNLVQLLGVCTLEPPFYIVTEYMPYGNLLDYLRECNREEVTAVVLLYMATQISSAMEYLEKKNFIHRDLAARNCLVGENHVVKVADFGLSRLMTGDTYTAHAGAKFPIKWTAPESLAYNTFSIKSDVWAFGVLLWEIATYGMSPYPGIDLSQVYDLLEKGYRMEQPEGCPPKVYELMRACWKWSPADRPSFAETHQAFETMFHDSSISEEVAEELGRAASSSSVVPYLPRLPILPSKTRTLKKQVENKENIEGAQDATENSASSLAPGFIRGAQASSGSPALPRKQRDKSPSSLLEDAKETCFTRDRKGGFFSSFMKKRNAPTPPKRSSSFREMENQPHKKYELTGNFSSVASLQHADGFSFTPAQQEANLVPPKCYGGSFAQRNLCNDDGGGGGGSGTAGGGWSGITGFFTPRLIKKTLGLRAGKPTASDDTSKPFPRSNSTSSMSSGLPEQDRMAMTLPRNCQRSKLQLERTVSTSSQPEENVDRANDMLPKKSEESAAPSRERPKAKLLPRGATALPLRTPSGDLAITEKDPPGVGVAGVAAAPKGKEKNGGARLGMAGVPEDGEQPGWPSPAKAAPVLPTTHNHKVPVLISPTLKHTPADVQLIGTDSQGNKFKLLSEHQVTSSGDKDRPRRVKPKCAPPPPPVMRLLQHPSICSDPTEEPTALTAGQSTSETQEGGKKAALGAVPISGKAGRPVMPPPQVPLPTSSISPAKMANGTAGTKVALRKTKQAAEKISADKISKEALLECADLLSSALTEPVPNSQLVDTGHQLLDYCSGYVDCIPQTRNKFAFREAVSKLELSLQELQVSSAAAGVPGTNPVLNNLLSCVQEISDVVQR

[16] = molecular target: Ribosomal protein S6 kinase alpha-1 (Homo sapiens) (UniProt Q15418); experiment: Inhibition of human full length RSK1 expressed in baculovirus assessed as substrate phosphorylation using fluorescence-labelled peptides as substrate at 0.1 uM after 90 mins by microfluidic peptide phosphorylation assay
Chain of Ribosomal protein S6 kinase alpha-1 (Homo sapiens) (Q15418 whole entry): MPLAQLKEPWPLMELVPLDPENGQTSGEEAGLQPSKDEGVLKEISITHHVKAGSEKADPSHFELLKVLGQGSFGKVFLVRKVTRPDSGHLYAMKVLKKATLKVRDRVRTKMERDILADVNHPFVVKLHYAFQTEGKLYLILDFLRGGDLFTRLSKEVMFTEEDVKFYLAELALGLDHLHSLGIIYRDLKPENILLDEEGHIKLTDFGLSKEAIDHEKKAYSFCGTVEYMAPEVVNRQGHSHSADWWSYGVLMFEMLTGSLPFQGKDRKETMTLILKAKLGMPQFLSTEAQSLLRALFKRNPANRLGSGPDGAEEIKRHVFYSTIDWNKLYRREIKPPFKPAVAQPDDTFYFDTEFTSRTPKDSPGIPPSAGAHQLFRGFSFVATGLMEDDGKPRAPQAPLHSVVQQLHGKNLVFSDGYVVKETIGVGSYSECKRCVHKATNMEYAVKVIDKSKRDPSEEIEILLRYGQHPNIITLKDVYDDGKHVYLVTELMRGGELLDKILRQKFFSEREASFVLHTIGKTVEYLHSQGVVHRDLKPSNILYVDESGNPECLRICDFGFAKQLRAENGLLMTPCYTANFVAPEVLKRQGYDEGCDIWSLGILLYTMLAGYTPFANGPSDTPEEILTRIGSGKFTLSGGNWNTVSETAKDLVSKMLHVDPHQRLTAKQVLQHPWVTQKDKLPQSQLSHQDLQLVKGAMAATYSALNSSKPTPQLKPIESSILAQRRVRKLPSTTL

`CNCc1ccc(-c2ncnc3[nH]cnc23)cc1` gave an inhibition [1] of 0%.

In the case of `c1nc(N2CCOCC2)c2nc[nH]c2n1`, the inhibition [2] is reported as 95%.

With `NCCc1ccc(-c2ncnc3[nH]cnc23)cc1` the inhibition [3] was 17%, the inhibition [4] was 68.5% and the inhibition [5] was 69.5%.

`NCC1CN(c2ncnc3[nH]c4cnccc4c23)CCO1` (stereo unspecified) gave an inhibition [6] of 74%, an inhibition [7] of 4.5% and an inhibition [8] of 31.5%. The inhibition [9] was 11%.

With `c1cnc2[nH]ccc2c1` the inhibition [10] was 30% and the inhibition [11] was 23.5%.

Work on `NC1CCN(c2ncnc3[nH]ccc23)CC1` yielded an inhibition [12] of 33%.

`COC(=O)c1cnc(Nc2cnc(C#N)cn2)cc1NCC1CCNCC1` showed an inhibition [13] of 0.5%.

With `NCC1CCN(c2ncnc3[nH]ccc23)CC1` the inhibition [14] was 37%.

`C[C@H](CN(C)C)Oc1nc(Nc2cc3cccc(Cl)c3cn2)cnc1C#N` was tested, and the inhibition [15] was 1.5% and the inhibition [16] was 48.5%.
